{"source": "PubChem BioAssay AID1918949", "about": "(Molecular Pharmacology Branch, DTP, NCI, 2023)", "tested_on": "K24384-001-R-PDC complex spheroid viability", "experiment": "Anticancer human tumor K24384-001-R-PDC patient-derived pancreatic adenocarcinoma cell line growth inhibition", "details": "for IC50: curve of first compound; for viability, T/C: stronger effect = lower value", "source_text": "Multicellular complex tumor spheroid response to LSD1 Inhibitor Iadademstat in combination with a variety of drugs and investigational agents in selected tumor cell lines\nThe current study was undertaken to assess response to LSD1 inhibitors in combination with standard-of-care drugs and investigational agents in solid tumor complex spheroid models as well as in the K-562 leukemia. Complex spheroids include a stromal component modeled by human endothelial cells (HUVEC) and fibroblasts modeled by human mesenchymal stem cells (MSCs). The concentration ranges selected for each drug and investigational agent were based upon clinically achievable concentrations if the clinical Cmax of the agent was known.\nCompounds. The drugs and investigational agents used in this study are listed on Table 1. All of the agents used, including staurosporine (NSC755774) and gemcitabine (NSC613327), were obtained from the Developmental Therapeutics Program, NCI. FDA-approved anticancer drugs are available from the NCI at http://dtp.nci.nih.gov/branches/dscb/oncology_drugset_explanation.html. Drugs and investigational agents were >95% pure by proton nuclear magnetic resonance (NMR) and liquid chromatography/mass spectrometry (LC/MS). Stock solutions were prepared at 400x in DMSO, stored at -70 degrees C, and diluted in fresh medium prior to their use. The final concentration of DMSO in cell culture wells never exceeded 0.25% (v/v). The FDA-approved anticancer drug set is available from the Developmental Therapeutics Program at https://dtp.cancer.gov/organization/dscb/obtaining/available_plates.htm. All drugs and investigational agents were tested over a range starting from a high concentration at or near the clinical Cmax and decreasing in half-log increments. If the clinical Cmax for an agent had not been determined, the highest concentration tested was 10 microM.\nCell Lines. The patient-derived cancer cell (PDC) lines: 292921-168-R-J2-PDC, K24384-001-R-PDC, and 521955-158-R2-J5-PDC pancreatic carcinomas, 556581-035-R-J1 ovarian carcinoma, 324938-238-R-J1-PDC, 855422-203-R-J1-PDC and 883617-216-R-J1-PDC urothelial bladder carcinomas, 743489-274-T-PDC renal cell carcinoma, 138582-R-J1 Merkel cell tumor, K60290-347-R-J1 and K57222-313-R-J1-PDC glioblastomas, 653999-131-R-J2-PDC, LG0703-F948-PDC, and 349418-098-R-PDC non-small cell lung carcinomas, 885512-296-R-J2-PDC, 171881-019-R-J1-PDC breast carcinomas and 186277-243-T-J2-PDC and 233499-124-R-J2-PDC colon carcinomas were obtained from the NCI Patient-Derived Models Repository (PDMR, https://pdmr.cancer.gov). The established cell lines NCI/ADR-RES (RRID:CVCL_14520 and OVCAR-5 (RRID:CVCL_1628) ovarian carcinomas, 786-O (RRID:CVCL_1051) and A498 (RRID:CVCL_A498) renal cell carcinoma, NCI-H211 (ATCC, cat. CRL-5824; RRID:CVCL_1529), NCI-H196 (ATCC, cat. CRL-5823, RRID:CVCL_1509), SW 1271 (ATCC, cat. CRL-2177, RRID:CVCL_1716) and NCI-H1876 (ATCC, cat. CRL-5902, RRID:CVCL_1503) small cell lung carcinomas, MDA-MB-231 (RRID:CVCL_0062) and MDA-MB-468 (RRID:CVCL_0419)breast carcinomas (10-12). Pooled donor human umbilical vein endothelial cells (HUVEC, Lonza, cat. CC-2519) and human mesenchymal stem cells (hMSC, Lonza, cat. PT-2501) were purchased from Lonza (Walkersville, MD).\nCell Culture. All cells were maintained in an incubator at 37 degrees C and 5% CO2 with 95% humidity. The PDC lines were cultured according to standard operating procedures established by the NCI PDMR (https://pdmr.cancer.gov). Briefly all PDCs were thawed and cultured in Matrigel-coated flasks prepared with a working solution of 1X Ham's F-12 nutrient mix, without supplementation (Invitrogen, Waltham, MA, cat. 11765054), 100 U/mL penicillin-streptomycin (Invitrogen, cat. 15140122), and 2.5% Matrigel (Corning Inc., Corning, NY, cat. 354248) for the first three passages. […]", "key": {"[1]": {"details": "second compound 0.1 µM, first compound 0.00316 µM"}, "[2]": {"details": "second compound 0.1 µM, first compound 0.01 µM"}, "[3]": {"details": "second compound 0.1 µM, first compound 0.0316 µM"}, "[4]": {"details": "second compound 0.1 µM, first compound 0.1 µM"}, "[5]": {"details": "second compound 0.1 µM, first compound 0.316 µM"}, "[6]": {"details": "second compound 0.1 µM, first compound 1 µM"}, "[7]": {"details": "second compound 0.316 µM, first compound 0.00316 µM"}, "[8]": {"details": "second compound 0.316 µM, first compound 0.01 µM"}, "[9]": {"details": "second compound 0.316 µM, first compound 0.0316 µM"}, "[10]": {"details": "second compound 0.316 µM, first compound 0.1 µM"}, "[11]": {"details": "second compound 0.316 µM, first compound 0.316 µM"}, "[12]": {"details": "second compound 0.316 µM, first compound 1 µM"}, "[13]": {"details": "second compound 1 µM, first compound 0.00316 µM"}, "[14]": {"details": "second compound 1 µM, first compound 0.01 µM"}, "[15]": {"details": "second compound 1 µM, first compound 0.0316 µM"}, "[16]": {"details": "second compound 1 µM, first compound 0.1 µM"}, "[17]": {"details": "second compound 1 µM, first compound 0.316 µM"}, "[18]": {"details": "second compound 1 µM, first compound 1 µM"}, "[19]": {"details": "second compound 3.16 µM, first compound 0.00316 µM"}, "[20]": {"details": "second compound 3.16 µM, first compound 0.01 µM"}, "[21]": {"details": "second compound 3.16 µM, first compound 0.0316 µM"}, "[22]": {"details": "second compound 3.16 µM, first compound 0.1 µM"}, "[23]": {"details": "second compound 3.16 µM, first compound 0.316 µM"}, "[24]": {"details": "second compound 3.16 µM, first compound 1 µM"}, "[25]": {"details": "second compound 10 µM, first compound 0.00316 µM"}, "[26]": {"details": "second compound 10 µM, first compound 0.01 µM"}, "[27]": {"details": "second compound 10 µM, first compound 0.0316 µM"}, "[28]": {"details": "second compound 10 µM, first compound 0.1 µM"}, "[29]": {"details": "second compound 10 µM, first compound 0.316 µM"}, "[30]": {"details": "second compound 10 µM, first compound 1 µM"}}}
{"compound": "O=C(C=Cn1cnc(-c2cc(C(F)(F)F)cc(C(F)(F)F)c2)n1)NNc1cnccn1", "note": "+ NC1CCC(NC2CC2c2ccccc2)CC1;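 further: spheroids exposed to agents for seven days before luminescence viability reading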;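 on viability, T/C: 100% = DMSO vehicle control viability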", "values": [{"measurement": "IC50", "setting": "second compound 0.1 µM", "result": 29.8, "unit": "nM"}, {"measurement": "IC50", "setting": "second compound 0.316 µM", "result": 47.3, "unit": "nM"}, {"measurement": "IC50", "setting": "second compound 1 µM", "result": 31.4, "unit": "nM"}, {"measurement": "IC50", "setting": "second compound 3.16 µM", "result": 35.1, "unit": "nM"}, {"measurement": "IC50", "setting": "second compound 10 µM", "result": 28.9, "unit": "nM"}, {"measurement": "viability, T/C", "setting": "[1]", "result": 72.7, "unit": "%"}, {"measurement": "viability, T/C", "setting": "[2]", "result": 62.3, "unit": "%"}, {"measurement": "viability, T/C", "setting": "[3]", "result": 49.8, "unit": "%"}, {"measurement": "viability, T/C", "setting": "[4]", "result": 36.2, "unit": "%"}, {"measurement": "viability, T/C", "setting": "[5]", "result": 30.7, "unit": "%"}, {"measurement": "viability, T/C", "setting": "[6]", "result": 23.9, "unit": "%"}, {"measurement": "viability, T/C", "setting": "[7]", "result": 75, "unit": "%"}, {"measurement": "viability, T/C", "setting": "[8]", "result": 69.8, "unit": "%"}, {"measurement": "viability, T/C", "setting": "[9]", "result": 57.9, "unit": "%"}, {"measurement": "viability, T/C", "setting": "[10]", "result": 34.6, "unit": "%"}, {"measurement": "viability, T/C", "setting": "[11]", "result": 34, "unit": "%"}, {"measurement": "viability, T/C", "setting": "[12]", "result": 21, "unit": "%"}, {"measurement": "viability, T/C", "setting": "[13]", "result": 67, "unit": "%"}, {"measurement": "viability, T/C", "setting": "[14]", "result": 65.1, "unit": "%"}, {"measurement": "viability, T/C", "setting": "[15]", "result": 49.8, "unit": "%"}, {"measurement": "viability, T/C", "setting": "[16]", "result": 31.3, "unit": "%"}, {"measurement": "viability, T/C", "setting": "[17]", "result": 30.3, "unit": "%"}, {"measurement": "viability, T/C", "setting": "[18]", "result": 24.3, "unit": "%"}, {"measurement": "viability, T/C", "setting": "[19]", "result": 64.9, "unit": "%"}, {"measurement": "viability, T/C", "setting": "[20]", "result": 61.2, "unit": "%"}, {"measurement": "viability, T/C", "setting": "[21]", "result": 53, "unit": "%"}, {"measurement": "viability, T/C", "setting": "[22]", "result": 31.8, "unit": "%"}, {"measurement": "viability, T/C", "setting": "[23]", "result": 30.3, "unit": "%"}, {"measurement": "viability, T/C", "setting": "[24]", "result": 20.5, "unit": "%"}, {"measurement": "viability, T/C", "setting": "[25]", "result": 72.7, "unit": "%"}, {"measurement": "viability, T/C", "setting": "[26]", "result": 70.5, "unit": "%"}, {"measurement": "viability, T/C", "setting": "[27]", "result": 47.2, "unit": "%"}, {"measurement": "viability, T/C", "setting": "[28]", "result": 31.5, "unit": "%"}, {"measurement": "viability, T/C", "setting": "[29]", "result": 30.8, "unit": "%"}, {"measurement": "viability, T/C", "setting": "[30]", "result": 21.6, "unit": "%"}]}
{"compound": "CC1COCCN1c1cc(-c2ccnn2C)c2ccnc(-c3ccn[nH]3)c2n1", "note": "(stereo not given) + NC1CCC(NC2CC2c2ccccc2)CC1", "values": [{"measurement": "IC50", "setting": "second compound 0.1 µM", "result": 56.6, "unit": "nM"}, {"measurement": "IC50", "setting": "second compound 0.316 µM", "result": "< 3.16", "unit": "nM"}, {"measurement": "IC50", "setting": "second compound 1 µM", "result": 7.71, "unit": "nM"}, {"measurement": "IC50", "setting": "second compound 3.16 µM", "result": 9.22, "unit": "nM"}, {"measurement": "IC50", "setting": "second compound 10 µM", "result": 5.07, "unit": "nM"}, {"measurement": "viability, T/C", "setting": "[1]", "result": 54.7, "unit": "%"}, {"measurement": "viability, T/C", "setting": "[2]", "result": 56.7, "unit": "%"}, {"measurement": "viability, T/C", "setting": "[3]", "result": 49, "unit": "%"}, {"measurement": "viability, T/C", "setting": "[4]", "result": 45.1, "unit": "%"}, {"measurement": "viability, T/C", "setting": "[5]", "result": 52.2, "unit": "%"}, {"measurement": "viability, T/C", "setting": "[6]", "result": 42.4, "unit": "%"}, {"measurement": "viability, T/C", "setting": "[7]", "result": 52.6, "unit": "%"}, {"measurement": "viability, T/C", "setting": "[8]", "result": 48.3, "unit": "%"}, {"measurement": "viability, T/C", "setting": "[9]", "result": 42.5, "unit": "%"}, {"measurement": "viability, T/C", "setting": "[10]", "result": 43.3, "unit": "%"}, {"measurement": "viability, T/C", "setting": "[11]", "result": 51.6, "unit": "%"}, {"measurement": "viability, T/C", "setting": "[12]", "result": 44.4, "unit": "%"}, {"measurement": "viability, T/C", "setting": "[13]", "result": 51, "unit": "%"}, {"measurement": "viability, T/C", "setting": "[14]", "result": 56.5, "unit": "%"}, {"measurement": "viability, T/C", "setting": "[15]", "result": 41.6, "unit": "%"}, {"measurement": "viability, T/C", "setting": "[16]", "result": 40.2, "unit": "%"}, {"measurement": "viability, T/C", "setting": "[17]", "result": 47.5, "unit": "%"}, {"measurement": "viability, T/C", "setting": "[18]", "result": 44.2, "unit": "%"}, {"measurement": "viability, T/C", "setting": "[19]", "result": 55.4, "unit": "%"}, {"measurement": "viability, T/C", "setting": "[20]", "result": 51.7, "unit": "%"}, {"measurement": "viability, T/C", "setting": "[21]", "result": 41.8, "unit": "%"}, {"measurement": "viability, T/C", "setting": "[22]", "result": 42, "unit": "%"}, {"measurement": "viability, T/C", "setting": "[23]", "result": 49.7, "unit": "%"}, {"measurement": "viability, T/C", "setting": "[24]", "result": 36.2, "unit": "%"}, {"measurement": "viability, T/C", "setting": "[25]", "result": 48.4, "unit": "%"}, {"measurement": "viability, T/C", "setting": "[26]", "result": 54.9, "unit": "%"}, {"measurement": "viability, T/C", "setting": "[27]", "result": 39.2, "unit": "%"}, {"measurement": "viability, T/C", "setting": "[28]", "result": 34.7, "unit": "%"}, {"measurement": "viability, T/C", "setting": "[29]", "result": 33.2, "unit": "%"}, {"measurement": "viability, T/C", "setting": "[30]", "result": 31.6, "unit": "%"}]}
